Earlier results as cited in US8815815B2, “Methods for producing phytoextracts from vegetation waters and olive oil pomaces and compositions obtained thereby” (Phenofarm S.r.l., priority 2011, dated 2014).
≈ marks a conversion by molar mass, not a printed value.

Assays:
[1] = tested on: P-388 murine leukaemia cells
[2] = tested on: neutrophils; details: in vitro
[3] = tested on: PC12 neuronal cell culture; details: 1-methyl-4-phenylpyridine (MPP+) ion

## C[C@@H]1O[C@@H](O[C@@H]2[C@@H](O)[C@H](OCCc3ccc(O)c(O)c3)O[C@H](COC(=O)/C=C/c3ccc(O)c(O)c3)[C@H]2O)[C@H](O)[C@H](O)[C@H]1O [isoacteoside]
[1]
  ED50 cytotoxic action: 10 µg/mL (≈ 16 µM)

## C[C@@H]1O[C@@H](O[C@@H]2[C@@H](O)[C@H](OCCc3ccc(O)c(O)c3)O[C@H](CO)[C@H]2OC(=O)/C=C/c2ccc(O)c(O)c2)[C@H](O)[C@H](O)[C@H]1O [verbascoside]
[2]
  chemotactic activity of neutrophils: increasing the chemotactic activity of neutrophils
[1]
  ED50 cytotoxic action: 26 µg/mL (≈ 41.6 µM)
[3]
  protection activity against neurotoxicity induced by MPP+: protection activity against neurotoxicity
